Reference: patent US20220143060A1, “METHOD FOR TREATING INFECTIOUS DISEASES BY TARGETING NK CELL IMMUNE CHECKPOINT” (priority 2019, published 2022)

Columns and labels:
HCV (J399EM) = assay: HCV copy number in serum/peripheral blood and liver tissue by qPCR in HCV-infected C/O-Tg mice; assay type: in vivo; details: two weeks of treatment, vs control (FIG. 7B, 8C)
Method: This mouse model of HCV infection was first reproduced and confirmed. HCV (J399EM, 1 mL, TCID50=2×10^7) was used for tail vein infusion in C/O-Tg mice and wild-type littermate control mice. […] The above results are consistent with the observation in patients infected with HCV (Fahey S, Dempsey E, Long A. The role of chemokines in acute and chronic hepatitis C infection. Cellular and Molecular Immunology 11, 25 (2014)).
Since CD8+ T cells are generally thought to play an important role in viral infection and clearance, the expression profile of CD8+T immune checkpoint molecules during HCV infection was first tested. […] Based on this, it was tested whether targeting T cell immune checkpoint molecules can inhibit the chronic infection process.
In order to further investigate the therapeutic effect of NKG2A blockade on chronic HCV infection, mice were administered with NKG2A blocking antibodies two weeks after HCV infection. Up-regulation of NKG2A expression has been observed at this stage (FIG. 3C) and administration was lasted for two weeks (FIG. 6A).

liver NK cells = assay: in vitro NK function assay: liver NK cells of treated mice co-cultured with target cells Yac-1, flow cytometry (CD107a, granzyme B, IFN-γ); assay type: in vivo, C/O-Tg mice; details: two weeks of treatment with Qa-1 siRNA, vs control siRNA (FIG. 8D)
Qa-1 = Qa-1 mRNA expression of different cell components in liver tissue after siRNA treatment; assay type: in vivo, C/O-Tg mice; details: tail vein injection, two weeks of treatment, vs control siRNA (FIG. 8B)
Source text: On the other hand, it was investigated whether suppression of the expression of immune checkpoint molecules can promote the elimination of HCV.

## cholesterol-conjugated siRNA against Qa-1: cholesterol-conjugated siRNA against Qa-1, sequence GAAGAGGAGGAGACACAUA, synthesized by GenePharma (cholesterol-conjugated, position not given here)
HCV (J399EM)
  HCV replication (copy numbers of virus in serum and liver tissues): inhibited HCV replication
Liver NK cells
  depletion process of NK cells (CD107a and IFN-γ): reversed
Qa-1
  Qa-1 expression (mRNA) in liver cell components: selectively down-regulated Qa-1 in hepatocytes
